The data set in a line: HILIC, Waters ACQUITY UPLC BEH Amide, 100 × 2.1 mm, 1.7 µm; A: water + 0.125% formic acid + 10 mM ammonium formate; B: 5% water + 95% acetonitrile + 0.125% formic acid + 10 mM ammonium formate; gradient (min/%B) 0/100 2/100 7.7/70 9.5/40 10.25/30 12.75/100 17/100. The following applies: stereoisomer not certain.

As for `CC12CCC(=O)C=C1CCC1C2C(O)CC2(C)C1CCC2(O)C(=O)CO` (configuration not stated) [Hydrocortisone], the LC retention time was determined as 2.56 min.

Consider `CN1CCC23c4c5ccc(O)c4OC2C(=O)CCC3C1C5` (configuration not stated) [Hydromorphone], for which the LC retention time is 5.22 min.

For the molecule `O=C(O)C1CC(O)CN1` (configuration not stated) [Hydroxyproline], the LC retention time worked out at 8.14 min.

Regarding `O=c1[nH]cnc2nc[nH]c12` [Hypoxanthine], the LC retention time stood at 4.99 min.

Turning to `COc1ccc(-c2oc3c(CC=C(C)C)c(OC4OC(CO)C(O)C(O)C4O)cc(O)c3c(=O)c2OC2OC(C)C(O)C(O)C2O)cc1` (configuration not stated) [Icarin], the LC retention time came to 4.74 min.

For the molecule `CC(=O)C1(O)Cc2c(O)c3c(c(O)c2C(OC2CC(N)C(O)C(C)O2)C1)C(=O)c1ccccc1C3=O` (configuration not stated) [Idarubicin], the LC retention time was 5.42 min.

Consider `COC1=C(OC)C(=O)C(CCCCCCCCCCO)=C(C)C1=O` [Idebenone], for which the LC retention time was determined as 0.96 min.

For `CC(C(O)c1ccc(O)cc1)N1CCC(Cc2ccccc2)CC1` (configuration not stated) [Ifenprodil], the LC retention time came out at 3.17 min.

Turning to `Cc1ccc(NC(=O)c2ccc(CN3CCN(C)CC3)cc2)cc1Nc1nccc(-c2cccnc2)n1` [Imatinib], the LC retention time was determined as 5.36 min.

`c1c[nH]cn1` [Imidazole]: the LC retention time stood at 4.53 min.

Regarding `O=C1C(c2c(O)[nH]c3ccccc23)=Nc2ccccc21` [Indarubicin], the LC retention time came to 1.07 min.

With `CNC1CC(c2ccc(Cl)c(Cl)c2)c2ccccc21` (configuration not stated) [Indatraline], the LC retention time came out at 2.88 min.

With `CC(C)(C)NC(=O)C1CN(Cc2cccnc2)CCN1CC(O)CC(Cc1ccccc1)C(=O)NC1c2ccccc2CC1O` (configuration not stated) [Indinavir], the LC retention time turned out to be 2.17 min.

On to `NC(=O)Cc1c[nH]c2ccccc12` [Indole-3-acetamide], for which the LC retention time is 1.36 min.

For the molecule `OCc1c[nH]c2ccccc12` [Indole-3-carbinol], the LC retention time came out at 1.24 min.

Regarding `O=Cc1c[nH]c2ccccc12` [Indole-3-carboxaldehyde], the LC retention time came out at 1.16 min.

Take `O=C(O)c1c[nH]c2ccccc12` [Indole-3-carboxylic acid]: the LC retention time came to 1.41 min.

Regarding `O=C(O)C(=O)Cc1c[nH]c2ccccc12` [Indole-3-pyruvic acid], the LC retention time was found to be 5.11 min.

Regarding `O=C(O)C(O)Cc1c[nH]c2ccccc12` (configuration not stated) [Indolelactic acid], the LC retention time is 2.25 min.

For the molecule `COc1ccc2c(c1)c(CC(=O)O)c(C)n2C(=O)c1ccc(Cl)cc1` [Indomethacin], the LC retention time stood at 1.08 min.

Consider `O=c1[nH]cnc2c1ncn2C1OC(CO)C(O)C1O` (configuration not stated) [Inosine], for which the LC retention time came out at 6.19 min.

As for `Nc1c2c(nc3c1CCC3)CCCC2` [Ipidacrine], the LC retention time stood at 3.33 min.

In the case of `CC(C)Oc1ccc2c(=O)c(-c3ccccc3)coc2c1` [Ipriflavone], the LC retention time amounted to 0.94 min.

On to `CCCCC1=NC2(CCCC2)C(=O)N1Cc1ccc(-c2ccccc2-c2nn[nH]n2)cc1` [Irbesartan], for which the LC retention time is 1.16 min.

Take `CCc1c2c(nc3ccc(OC(=O)N4CCC(N5CCCCC5)CC4)cc13)-c1cc3c(c(=O)n1C2)COC(=O)C3(O)CC` (configuration not stated) [Irinotecan]: the LC retention time is 5.03 min.

Turning to `Nc1nc(N)nc(-c2cc(Cl)ccc2Cl)n1` [Irsogladine], the LC retention time amounted to 1.25 min.

Take `CC(C)CN` [Isobutylamine]: the LC retention time was 5.04 min.

For the molecule `CC(C)C(=O)O` [Isobutyric acid], the LC retention time worked out at 1.77 min.

In the case of `CCC(C)C(N)C(=O)O` (configuration not stated) [Isoleucine], the LC retention time worked out at 7.18 min.

For the molecule `OCC1OC(OCC2OC(O)C(O)C(O)C2O)C(O)C(O)C1O` (configuration not stated) [Isomaltose], the LC retention time stood at 7.19 min.

Turning to `CC(C)=CCNc1ncnc2nc[nH]c12` [Isopentenyladenine], the LC retention time amounted to 1.81 min.

Take `COc1cc(-c2oc3cc(O)cc(O)c3c(=O)c2OC2OC(COC3OC(C)C(O)C(O)C3O)C(O)C(O)C2O)ccc1O` (configuration not stated) [Isorhamnetin-3-O-rutinoside]: the LC retention time stood at 6.02 min.

With `COc1cc(-c2oc3cc(O)cc(O)c3c(=O)c2OC2OC(CO)C(O)C(O)C2O)ccc1O` (configuration not stated) [Isorhamnetin-3-glucoside], the LC retention time came to 4.49 min.

Take `CC(C)CC(=O)OC(CC(=O)[O-])C[N+](C)(C)C` [Isovaleryl-L-carnitine]: the LC retention time came out at 5.36 min.

Regarding `Nc1nc2[nH]c(=O)cnc2c(=O)[nH]1` [Isoxanthopterin], the LC retention time is 6.41 min.

For the molecule `COC(=O)C1=C(C)NC(C)=C(C(=O)OC(C)C)C1c1cccc2nonc12` (configuration not stated) [Isradipine], the LC retention time was found to be 0.95 min.

Take `COc1ccc(C(=O)NCc2ccc(OCCN(C)C)cc2)cc1OC` [Itopride]: the LC retention time turned out to be 3.65 min.

For `CCC(C)n1ncn(-c2ccc(N3CCN(c4ccc(OCC5COC(Cn6cncn6)(c6ccc(Cl)cc6Cl)O5)cc4)CC3)cc2)c1=O` (configuration not stated) [Itraconzaole], the LC retention time came to 0.97 min.

As for `CC1OC(OCC2OC(Oc3c(-c4ccc(O)cc4)oc4cc(O)cc(O)c4c3=O)C(O)C(O)C2O)C(O)C(O)C1O` (configuration not stated) [Kaempferol-3-O-rutinoside], the LC retention time amounted to 6.09 min.

With `O=c1c(O)c(-c2ccc(O)cc2)oc2cc(O)cc(O)c12` [Kaempferol], the LC retention time was determined as 1.4 min.

As for `CC(=O)N1CCN(c2ccc(OCC3COC(Cn4ccnc4)(c4ccc(Cl)cc4Cl)O3)cc2)CC1` (configuration not stated) [Ketoconazole], the LC retention time worked out at 1.73 min.

As to `CC(C)C(=O)C(=O)O` [Ketoisovaleric acid], the LC retention time was found to be 2.84 min.

Take `CN1CCC(=C2c3ccccc3CC(=O)c3sccc32)CC1` [Ketotifen]: the LC retention time is 2.71 min.

As for `COC1C(O)CC(=O)OC(C)CC=CC=CC(O)C(C)CC(CC=O)C1OC1OC(C)C(OC2CC(C)(O)C(OC(=O)CC(C)C)C(C)O2)C(N(C)C)C1O` (configuration not stated) [Kitasamycin], the LC retention time amounted to 2.04 min.

In the case of `O=C(O)c1cc(=O)c2ccccc2[nH]1` [Kynurenic acid], the LC retention time worked out at 6.15 min.

For `Nc1ccccc1C(=O)CC(N)C(=O)O` (configuration not stated) [Kynurenine], the LC retention time is 6.98 min.

Turning to `CS(=O)(=O)Nc1ccc(Cc2noc(-c3ccc4[nH]cc(CCN)c4c3)n2)cc1` [L-694,247], the LC retention time was found to be 5.25 min.

Turning to `NC(CCC(=O)NC(CSSCC(N)C(=O)O)C(=O)NCC(=O)O)C(=O)O` [L-Cysteine-glutathione disulfide], the LC retention time came to 10.2 min.

Turning to `NC(=O)NCCCC[C@H](N)C(=O)O` [L-Homocitrulline], the LC retention time is 8.73 min.

On to `CCOC(=O)C1=C(C)NC(C)=C(C(=O)OCC)C1c1ccccc1C=CC(=O)OC(C)(C)C` [Lacidipine], for which the LC retention time is 0.94 min.

As for `CC(O)C(N)=O` (configuration not stated) [Lactamide], the LC retention time was determined as 1.74 min.

On to `OCC(O)C(O)C(OC1OC(CO)C(O)C(O)C1O)C(O)CO` (configuration not stated) [Lactitol], for which the LC retention time is 8.99 min.

As to `Nc1ccn(C2CSC(CO)O2)c(=O)n1` (configuration not stated) [Lamivudine], the LC retention time stood at 3.4 min.

Take `Nc1nnc(-c2cccc(Cl)c2Cl)c(N)n1` [Lamotrigine]: the LC retention time was determined as 1.98 min.

For the molecule `CC(C)OC(=O)CCCC=CCC1C(O)CC(O)C1CCC(O)CCc1ccccc1` (configuration not stated) [Latanoprost], the LC retention time was determined as 1.06 min.

In the case of `CCCCCCCCCCCC(=O)OC(CC(=O)[O-])C[N+](C)(C)C` [Lauroyl-L-carnitine], the LC retention time was determined as 3.63 min.

Take `N#Cc1ccc(C(c2ccc(C#N)cc2)n2cncn2)cc1` [Letrozol]: the LC retention time is 0.98 min.

Consider `CC(C)CC(N)C(=O)NC(C)C(=O)O` (configuration not stated) [Leu-Ala], for which the LC retention time is 5 min.

As for `CC(C)CC(N)C(=O)NC(CCCN=C(N)N)C(=O)O` (configuration not stated) [Leu-Arg], the LC retention time is 8.86 min.

For `CC(C)CC(N)C(=O)N1CCCC1C(=O)O` (configuration not stated) [Leu-Pro], the LC retention time came out at 7.32 min.

As for `CC(C)CC(N)C(=O)O` (configuration not stated) [Leucine], the LC retention time was 7.08 min.

Turning to `c1ccc(C2CN3CCSC3=N2)cc1` (configuration not stated) [Levamisole], the LC retention time is 2.95 min.

`CCC(C(N)=O)N1CCCC1=O` (configuration not stated) [Levetiracetam]: the LC retention time came out at 1.45 min.

Regarding `O=C(O)COCCN1CCN(C(c2ccccc2)c2ccc(Cl)cc2)CC1` (configuration not stated) [Levocetirizine], the LC retention time was determined as 2.9 min.

`C#CC1(O)CCC2C3CCC4=CC(=O)CCC4C3CCC21CC` (configuration not stated) [Levonorgestrel]: the LC retention time worked out at 0.99 min.

In the case of `CCN1CCCC1CNC(=O)c1cc(S(N)(=O)=O)ccc1OC` (configuration not stated) [Levosulpiride], the LC retention time was 4.37 min.

Regarding `CCN(CC)CC(=O)Nc1c(C)cccc1C` [Lidocaine], the LC retention time was 1.97 min.

For `C=C(C)C1CC=C(C)CC1` (configuration not stated) [Limonene], the LC retention time was determined as 0.92 min.

For the molecule `C=CC(C)(O)CCC=C(C)C` (configuration not stated) [Linalool], the LC retention time stood at 0.97 min.

`CC(=O)NCC1CN(c2ccc(N3CCOCC3)c(F)c2)C(=O)O1` (configuration not stated) [Linezolide]: the LC retention time turned out to be 1.15 min.

Consider `CCCCCC=CCC=CCCCCCCCC(=O)OC(CC(=O)[O-])C[N+](C)(C)C` (configuration not stated) [Linoleoylcarnitine], for which the LC retention time came to 3.1 min.

In the case of `O=C1N(c2ccccc2)c2ccccc2C1(Cc1ccncc1)Cc1ccncc1` [Linopirdine], the LC retention time was found to be 1.17 min.

`NC(=O)CCCCC1CCSS1` (configuration not stated) [Lipoamide]: the LC retention time came to 1.25 min.

`O=C1CC(c2ccc(O)cc2)Oc2cc(O)ccc21` (configuration not stated) [Liquiritigenin]: the LC retention time came to 1.3 min.

Regarding `CN1C(CC(=O)c2ccccc2)CCCC1CC(O)c1ccccc1` (configuration not stated) [Lobeline A], the LC retention time is 2.02 min.

For the molecule `CN(CCCN1c2ccccc2CCc2ccccc21)CC(=O)c1ccc(Cl)cc1` [Lofepramine], the LC retention time came out at 1.91 min.

For `CC(Oc1c(Cl)cccc1Cl)C1=NCCN1` (configuration not stated) [Lofexidine], the LC retention time was found to be 2.65 min.

The values above are taken from the RepoRT retention time repository.
